Laboratory results taken from US20100298141A1, “SUBSTITUTED PYRIDINE N-OXIDE HERBICIDES” (E. I. DU PONT DE NEMOURS AND COMPANY, priority 2007, published 2010).

Experiments:
giant foxtail [1] = assay: Test C pre-/postemergence test; assay type: in vivo, Setaria faberii
Outline: (§1)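 Seeds were planted and treated preemergence with test chemical in a non-phytotoxic solvent mixture containing surfactant. Postemergence applications of the same formulation went onto plants 2 to 18 cm tall (1- to 4-leaf stage). A dash marks no test result.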

downy brome = assay: Test C pre-/postemergence test; assay type: in vivo, Bromus tectorum
Outline: as §1

giant foxtail [2] = assay: Test A pre-/postemergence greenhouse test; assay type: in vivo, Setaria faberi; conditions: for Foxtail, Giant plant response rating: 0 to 100 scale
Outline: (§2)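 Each test compound, dissolved in a non-phytotoxic solvent mixture with surfactant, was sprayed directly onto seeded soil (loam/sand blend) and, at the same moment, onto seedlings carrying one to two leaves. Around ten greenhouse days later, plants were rated visually for injury relative to untreated controls.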

wheat [3] = assay: Test A pre-/postemergence greenhouse test; assay type: in vivo, Triticum aestivum; conditions: for Wheat plant response rating: 0 to 100 scale
Outline: as §2

eastern black nightshade = assay: Test C pre-/postemergence test; assay type: in vivo, Solanum ptycanthum
Outline: as §1

wild oat = assay: Test C pre-/postemergence test; assay type: in vivo, Avena fatua
Outline: as §1

kochia = assay: Test C pre-/postemergence test; assay type: in vivo, Kochia scoparia
Outline: as §1

catchweed bedstraw = assay: Test C pre-/postemergence test; assay type: in vivo, Galium aparine
Outline: as §1

blackgrass = assay: Test C pre-/postemergence test; assay type: in vivo, Alopecurus myosuroides
Outline: as §1

wheat [4] = assay: Test C pre-/postemergence test; assay type: in vivo, Triticum aestivum
Outline: as §1

redroot pigweed = assay: Test A pre-/postemergence greenhouse test; assay type: in vivo, Amaranthus retroflexus; conditions: for Pigweed plant response rating: 0 to 100 scale
Outline: as §2

common ragweed = assay: Test C pre-/postemergence test; assay type: in vivo, Ambrosia elation
Outline: as §1

[5] = system: common (oilseed) sunflower; assay: Test C pre-/postemergence test; assay type: in vivo, Helianthus annuus
Outline: as §1

woolly cupgrass = assay: Test C pre-/postemergence test; assay type: in vivo, Eriochloa villosa
Outline: as §1

velvetleaf = assay: Test C pre-/postemergence test; assay type: in vivo, Abutilon theophrasti
Outline: as §1

lambsquarters = assay: Test C pre-/postemergence test; assay type: in vivo, Chenopodium album
Outline: as §1

cocklebur = assay: Test C pre-/postemergence test; assay type: in vivo, Xanthium strumarium
Outline: as §1

Surinam grass = assay: Test C pre-/postemergence test; assay type: in vivo, Brachiaria decumbens
Outline: as §1

morningglory = assay: Test A pre-/postemergence greenhouse test; assay type: in vivo, Ipomoea spp.; conditions: for Morningglory plant response rating: 0 to 100 scale
Outline: as §2

[6] = 62 g ai/ha, Preemergence, scale 0 to 100
[7] = 125 g ai/ha, preemergence, scale 0 (no effect) to 100 (complete control)
[8] = Preemergence, 31 g ai/ha, scale 0 to 100 (0 no effect, 100 complete control)
[9] = preemergence, 250 g ai/ha, scale 0 (no effect) to 100 (complete control)
[10] = Postemergence, 125 g ai/ha, 0 is no effect, 100 is complete control
[11] = Postemergence, 500 g ai/ha, 0 is no effect, 100 is complete control
[12] = Preemergence, 125 g ai/ha, 0 no effect, 100 complete control
[13] = Preemergence, 500 g ai/ha, 0 to 100 scale where 0 is no effect and 100 is complete control

Cc1cc[n+]([O-])c(S(=O)(=O)C(Cl)c2c(C(F)(F)F)nn(C)c2OCC(F)(F)F)c1 (racemic) [Compound 37]
Foxtail, Giant plant response rating (giant foxtail [1]; [6]): 70
Foxtail, Giant plant response rating (giant foxtail [1]; [7]): 85
Plant response rating, Foxtail, Giant (giant foxtail [1]; [8]): 20
Foxtail, Giant plant response rating (giant foxtail [1]; [9]): 100
Plant response rating, Bromegrass, Downy (downy brome; [8]): 0
Bromegrass, Downy plant response rating (downy brome; [9]): 60
Foxtail, Giant plant response rating (giant foxtail [2]; [10]): 30
Foxtail, Giant plant response rating (giant foxtail [2]; [11]): 80
Foxtail, Giant plant response rating (giant foxtail [2]; [12]): 90
Plant response rating, Foxtail, Giant (giant foxtail [2]; [13]): 100
Wheat plant response rating (wheat [3]; [10]): 0
Wheat plant response rating (wheat [3]; [11]): 50
Wheat plant response rating (wheat [3]; [12]): 20
Plant response rating, Wheat (wheat [3]; [13]): 50
Nightshade plant response rating (eastern black nightshade; [6]): 80
Nightshade plant response rating (eastern black nightshade; [7]): 85
Plant response rating, Nightshade (eastern black nightshade; [8]): 80
Nightshade plant response rating (eastern black nightshade; [9]): 90
Plant response rating, Oat, Wild (wild oat; [8]): 0
Oat, Wild plant response rating (wild oat; [9]): 60
Kochia plant response rating (kochia; [6]): 40
Kochia plant response rating (kochia; [7]): 100
Plant response rating, Kochia (kochia; [8]): 0
Kochia plant response rating (kochia; [9]): 100
Plant response rating, Galium (catchweed bedstraw; [8]): 80
Galium plant response rating (catchweed bedstraw; [9]): 80
Plant response rating, Blackgrass (blackgrass; [8]): 95
Blackgrass plant response rating (blackgrass; [9]): 100
Plant response rating, Wheat (wheat [4]; [8]): 0
Wheat plant response rating (wheat [4]; [9]): 30
Pigweed plant response rating (redroot pigweed; [10]): 20
Pigweed plant response rating (redroot pigweed; [11]): 50
Pigweed plant response rating (redroot pigweed; [12]): 100
Plant response rating, Pigweed (redroot pigweed; [13]): 100
Ragweed plant response rating (common ragweed; [6]): 0
Ragweed plant response rating (common ragweed; [7]): 70
Plant response rating, Ragweed (common ragweed; [8]): 0
Ragweed plant response rating (common ragweed; [9]): 80
Sunflower plant response rating [5, 6]: 0
Sunflower plant response rating [5, 7]: 0
Plant response rating, Sunflower [5, 8]: 0
Sunflower plant response rating [5, 9]: 40
Cupgrass, Woolly plant response rating (woolly cupgrass; [6]): 80
Cupgrass, Woolly plant response rating (woolly cupgrass; [7]): 98
Plant response rating, Cupgrass, Woolly (woolly cupgrass; [8]): 40
Cupgrass, Woolly plant response rating (woolly cupgrass; [9]): 100
Velvetleaf plant response rating (velvetleaf; [6]): 0
Velvetleaf plant response rating (velvetleaf; [7]): 10
Plant response rating, Velvetleaf (velvetleaf; [8]): 0
Velvetleaf plant response rating (velvetleaf; [9]): 70
Lambsquarters plant response rating (lambsquarters; [6]): 80
Lambsquarters plant response rating (lambsquarters; [7]): 100
Plant response rating, Lambsquarters (lambsquarters; [8]): 0
Lambsquarters plant response rating (lambsquarters; [9]): 100
Cocklebur plant response rating (cocklebur; [6]): 0
Cocklebur plant response rating (cocklebur; [7]): 0
Plant response rating, Cocklebur (cocklebur; [8]): 0
Cocklebur plant response rating (cocklebur; [9]): 0
Surinam Grass plant response rating (Surinam grass; [6]): 100
Surinam Grass plant response rating (Surinam grass; [7]): 100
Plant response rating, Surinam Grass (Surinam grass; [8]): 50
Surinam Grass plant response rating (Surinam grass; [9]): 100
Morningglory plant response rating (morningglory; [10]): 0
Morningglory plant response rating (morningglory; [11]): 20
Morningglory plant response rating (morningglory; [12]): 0
Plant response rating, Morningglory (morningglory; [13]): 80
